Where two headings read alike, the source gives them in different places.
What was measured:
T. crusi trans-sialidase = T. crusi trans-sialidase (Trypanosoma cruzi, UniProt P23253); assay: Suitability as acceptor for the trans-sialidase; type: biochemical
From the text: The third principal enzyme used here is the trans-sialidase of Trypanosoma crusi (T. crusi) whose isolation and reactivity was reported in Vendekerckhove et al., Glycobiology, 6:541 (1992). This enzyme is often referred to as the trans-sialidase, and has a broad specificity for transferring sialic acid from a wide variety of NeuAcα2→3βGal-containing donor oligosaccharides to the non-reducing terminus (end) of a narrower range oligosaccharide acceptors whose nonreducing terminal saccharide is a β-linked Gal. A sialic acid is not transferred from an α(2,6)-linked Gal.
Thus, using the α(2,3)sialyltransferase acceptors of Scheme 2 (Compounds 2a and 2b) as exemplary and keeping in mind the before-discussed structural preferences and requirements of the T. crusi trans-sialidase for an acceptor substrate, it is seen that Compound 2a that has a non-reducing terminal Galβ1→3GlcNAc linkage, whereas Compound 2b contains a Galβ1→3GalNAc linkage, neither of which is preferred for an acceptor for the trans-sialidase, and both are present in a catalytic amount.

[1] = target: T1, α-(2,3)Sialyltransferase EC 2.4.99.4 (Sus scrofa, UniProt Q02745); conditions: acceptor for EC 2.4.99.4, cited from earlier work
T1 sequence (Q02745 1-343): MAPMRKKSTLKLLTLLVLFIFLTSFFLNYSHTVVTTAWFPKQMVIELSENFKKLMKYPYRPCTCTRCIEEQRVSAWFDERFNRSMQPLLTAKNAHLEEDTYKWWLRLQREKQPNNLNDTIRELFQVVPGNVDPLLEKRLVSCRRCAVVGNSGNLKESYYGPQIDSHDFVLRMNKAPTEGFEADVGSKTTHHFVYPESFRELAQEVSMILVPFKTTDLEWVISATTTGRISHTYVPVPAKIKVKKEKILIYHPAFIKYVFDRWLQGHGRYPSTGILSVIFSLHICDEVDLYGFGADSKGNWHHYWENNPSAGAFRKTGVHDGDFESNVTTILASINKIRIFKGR

[2] = target: T2, α-(2,3)Sialyltransferase EC 2.4.99.6 (Rattus norvegicus, UniProt Q02734); conditions: acceptor for EC 2.4.99.6, cited from earlier work
T2 sequence (Q02734 1-374): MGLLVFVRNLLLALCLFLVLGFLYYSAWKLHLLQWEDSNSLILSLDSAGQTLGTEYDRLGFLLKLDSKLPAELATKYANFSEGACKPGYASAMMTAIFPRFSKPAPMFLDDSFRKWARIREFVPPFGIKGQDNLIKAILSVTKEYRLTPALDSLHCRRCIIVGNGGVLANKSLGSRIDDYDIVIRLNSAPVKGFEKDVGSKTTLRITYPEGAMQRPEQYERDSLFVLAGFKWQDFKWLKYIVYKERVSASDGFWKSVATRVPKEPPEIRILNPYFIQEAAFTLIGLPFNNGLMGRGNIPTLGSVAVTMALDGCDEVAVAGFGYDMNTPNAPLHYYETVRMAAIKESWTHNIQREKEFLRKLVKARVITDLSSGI

α(2,3)sialyltransferases = assay: Suitability as substrate of α(2,3)sialyltransferases; type: biochemical; conditions: all known α(2,3)sialyltransferases
From the text: First, the corresponding galactoside Compound 3 [Jansson et al., J. Org. […] Second, after protection of hydroxy and carboxylate groups and selective cleavage of 2-(trimethylsilyl)ethyl glycoside, the sialoside Compound 4 is readily converted to a disaccharide glycosyl donor that can be used in the block chemical synthesis of ganglioside GM4 and more complex sialosides [(a) Suguimoto et al., Tetrahedron Lett., 31:385 (1990); (b) Kameyama et al., Carbohydr. Res., 209 (1991)] as reported by others.

[3] = value approximated from the data in Rearick et al.

Chain of T. crusi trans-sialidase (P23253 whole entry): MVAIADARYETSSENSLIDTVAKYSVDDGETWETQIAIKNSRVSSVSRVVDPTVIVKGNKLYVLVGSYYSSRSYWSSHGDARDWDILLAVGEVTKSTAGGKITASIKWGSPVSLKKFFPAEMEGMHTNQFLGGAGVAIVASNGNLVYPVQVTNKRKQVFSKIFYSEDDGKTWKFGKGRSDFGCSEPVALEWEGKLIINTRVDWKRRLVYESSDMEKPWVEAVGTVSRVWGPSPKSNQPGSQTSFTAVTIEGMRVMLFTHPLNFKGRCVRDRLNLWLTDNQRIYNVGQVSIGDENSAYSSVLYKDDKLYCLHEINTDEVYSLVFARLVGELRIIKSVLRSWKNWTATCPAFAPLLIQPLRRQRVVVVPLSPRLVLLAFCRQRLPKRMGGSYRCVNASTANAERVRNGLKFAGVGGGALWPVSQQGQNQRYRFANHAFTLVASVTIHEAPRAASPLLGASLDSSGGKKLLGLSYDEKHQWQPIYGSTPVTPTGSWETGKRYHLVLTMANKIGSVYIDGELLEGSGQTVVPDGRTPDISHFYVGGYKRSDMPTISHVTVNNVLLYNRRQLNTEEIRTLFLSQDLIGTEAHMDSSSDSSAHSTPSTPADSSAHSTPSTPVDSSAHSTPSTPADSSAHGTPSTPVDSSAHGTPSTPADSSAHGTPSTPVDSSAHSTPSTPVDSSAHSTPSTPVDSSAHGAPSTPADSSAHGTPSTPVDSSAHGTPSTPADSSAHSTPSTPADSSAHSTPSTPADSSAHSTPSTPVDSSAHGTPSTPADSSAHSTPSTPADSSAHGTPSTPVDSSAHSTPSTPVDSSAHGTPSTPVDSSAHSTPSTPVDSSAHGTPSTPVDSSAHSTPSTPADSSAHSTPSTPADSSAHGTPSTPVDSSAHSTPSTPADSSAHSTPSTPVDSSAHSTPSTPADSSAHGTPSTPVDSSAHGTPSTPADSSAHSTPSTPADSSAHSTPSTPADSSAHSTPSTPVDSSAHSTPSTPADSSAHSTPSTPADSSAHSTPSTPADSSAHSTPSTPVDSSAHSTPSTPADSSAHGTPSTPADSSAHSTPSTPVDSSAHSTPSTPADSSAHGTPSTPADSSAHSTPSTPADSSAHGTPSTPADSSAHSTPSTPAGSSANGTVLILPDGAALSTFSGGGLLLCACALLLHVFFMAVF

| Compound | Km [2] [mM] | Km /Vmax [2] [mM-units mg] | Km /Vmax [1] [mM-units mg] | other results |
| --- | --- | --- | --- | --- |
| CC(=O)N[C@H]1[C@H](OCC[Si](C)(C)C)O[C@H](CO)[C@H](O)[C@@H]1O[C@@H]1O[C@H](CO)[C@H](O)[C@H](O)[C@H]1O [Compound 2b] | – | – | – | acceptor quality for the trans-sialidase (T. crusi trans-sialidase): relatively poor acceptors |
| CC(=O)N[C@H]1[C@H](O[C@H]2[C@@H](O)[C@@H](CO)O[C@@H](O[C@H]3[C@H](O)[C@@H](O)C(O)O[C@@H]3CO)[C@@H]2O)O[C@H](CO)[C@@H](O[C@@H]2O[C@H](CO)[C@H](O)[C@H](O)[C@H]2O)[C@@H]1O (some centres unmarked) [lacto-N-neo-tetraose, Galβ1→4GlcNAcβ1→3Galβ1→4Glc] | 4.22 | 4.3 | – | Km /Vmax [1, 3]: > 100 mM-units mg; Vmax [2]: 0.98 units/mg |
| OC[C@H]1O[C@@H](O[C@H]2[C@H](O)[C@@H](O)C(O)O[C@@H]2CO)[C@H](O)[C@@H](O)[C@H]1O (some centres unmarked) [Galβ1→4Glc] | – | 10 | 290 | – |
| CC(=O)N[C@H]1C(O)O[C@H](CO)[C@H](O)[C@@H]1O[C@@H]1O[C@H](CO)[C@H](O)[C@H](O)[C@H]1O (some centres unmarked) [Galβ1→3GalNAc] | – | – | 0.024 | Km /Vmax ([2]; value approximated from the data in Weinstein et al.): > 10 mM-units mg |
| CC(=O)N[C@H]1[C@H](O[C@H]2[C@@H](O)[C@@H](CO)O[C@@H](O[C@H]3[C@H](O)[C@@H](O)C(O)O[C@@H]3CO)[C@@H]2O)O[C@H](CO)[C@@H](O)[C@@H]1O[C@@H]1O[C@H](CO)[C@H](O)[C@H](O)[C@H]1O (some centres unmarked) [Compound 2a] | – | – | – | acceptor quality for the trans-sialidase (T. crusi trans-sialidase): relatively poor acceptors |
| CC(=O)N[C@H]1C(O)O[C@H](CO)[C@@H](O)[C@@H]1O[C@@H]1O[C@H](CO)[C@H](O)[C@H](O)[C@H]1O (some centres unmarked) [Galβ1→3GlcNAc] | 0.64 | 0.55 | 15 | – |
| CC(=O)N[C@H]1C(O)O[C@H](CO[C@@H]2O[C@H](CO)[C@H](O)[C@H](O)[C@H]2O)[C@@H](O)[C@@H]1O (some centres unmarked) [Galβ1→6GlcNAc] | – | – | 121 | – |
| C[Si](C)(C)CCO[C@@H]1O[C@H](CO)[C@H](O)[C@H](O)[C@H]1O [Compound 3] | – | – | – | substrate quality for α(2,3)sialyltransferases (α(2,3)sialyltransferases): poor substrate |
| CC(=O)N[C@H]1C(O)O[C@H](CO)[C@@H](O[C@@H]2O[C@H](CO)[C@H](O)[C@H](O)[C@H]2O)[C@@H]1O (some centres unmarked) [Galβ1→4GlcNAc] | 2.7 | 3.6 | 382 | – |
| CO[C@@H]1O[C@H](CO)[C@H](O)[C@H](O)[C@H]1O [Galβ1→OCH3] | – | – | – | Km /Vmax [1, 3]: > 100 mM-units mg |
| CC(=O)N[C@H]1[C@H](O[C@H]2[C@@H](O)[C@@H](CO)O[C@@H](O[C@H]3[C@H](O)[C@@H](O)C(O)O[C@@H]3CO)[C@@H]2O)O[C@H](CO)[C@@H](O)[C@@H]1O[C@@H]1O[C@H](CO)[C@H](O)[C@H](O)[C@H]1O (some centres unmarked) [lacto-N-tetraose, Galβ1→3GlcNAcβ1→3Galβ1→4Glc] | 0.09 | 0.09 | 7.5 | Km [1]: 27 mM |

Source: patent US5409817A, “Use of trans-sialidase and sialyltransferase for synthesis of sialylα2→3βgalactosides” (priority 1993, dated 1995)
